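These data come from cells grown in 96-well plates and exposed to compound for 48 hours at five concentrations. Abbreviation: GI50, concentration required for 50% inhibition of growth. TGI: concentration producing complete growth inhibition.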
Tests used:
Assay in all cases: NCI tumour cell line growth inhibition, 48 h
A498 renal = system: A498 renal
SNB-19 CNS = system: SNB-19 CNS
T-47D breast = system: T-47D breast
SK-MEL-28 melanoma = system: SK-MEL-28 melanoma
OVCAR-4 ovarian = system: OVCAR-4 ovarian
BT-549 breast = system: BT-549 breast
HOP-62 NSCLC = system: HOP-62 NSCLC
HCT-15 colon = system: HCT-15 colon
ACHN renal = system: ACHN renal
SK-MEL-5 melanoma = system: SK-MEL-5 melanoma
SF-539 CNS = system: SF-539 CNS
MALME-3M melanoma = system: MALME-3M melanoma
UACC-62 melanoma = system: UACC-62 melanoma
NCI-H226 lung = system: NCI-H226 lung
SW-620 colon = system: SW-620 colon
MDA-N = system: MDA-N

Compound | TGI (A498 renal) [µM] | TGI (SNB-19 CNS) [µM] | TGI (T-47D breast) [µM] | TGI (SK-MEL-28 melanoma) [µM] | TGI (OVCAR-4 ovarian) [µM] | TGI (BT-549 breast) [µM] | TGI (HOP-62 NSCLC) [µM] | TGI (HCT-15 colon) [µM] | TGI (ACHN renal) [µM] | TGI (SK-MEL-5 melanoma) [µM] | TGI (SF-539 CNS) [µM] | TGI (MALME-3M melanoma) [µM] | TGI (UACC-62 melanoma) [µM] | TGI (NCI-H226 lung) [µM] | TGI (SW-620 colon) [µM] | TGI (MDA-N) [µM] | GI50 (OVCAR-4 ovarian) [µM] | GI50 (BT-549 breast) [µM] | GI50 (MALME-3M melanoma) [µM] | GI50 (NCI-H226 lung) [µM]
Nc1nc2c(ncn2Cc2ccc(CO)cc2)c(=O)[nH]1 | > 100 | > 100 | > 100 | > 100 | > 100 | > 100 | > 100 | > 100 | > 100 | > 100 | > 100 | > 100 | > 100 | > 100 | > 100 |  |  |  |  | 
Cc1cc(OCc2nnc3n2N=C(c2cc(F)c(Cl)cc2Cl)/C(=C/c2ccc(Cl)cc2)S3)ccc1Cl | 45.9 |  | > 100 | 54.9 | 59.8 |  | > 100 | 63.4 | > 100 | 36.5 | > 100 |  |  | > 100 | 38.5 | > 100 |  |  |  | 
CCOC(=O)NC1CN2CCC1CC2 (stereo unspecified) | > 100 | > 100 | > 100 | > 100 | > 100 |  | > 100 | > 100 | > 100 | > 100 | > 100 | > 100 | > 100 | > 100 | > 100 | > 100 |  |  |  | 
CN(CCN(C)C(=S)NN)C(=S)NN |  | > 100 | > 100 | > 100 | > 100 | > 100 | > 100 |  | > 100 | > 100 |  | > 100 | > 100 |  | > 100 | > 100 |  |  |  | 
CC1C[C@]2(C)C(=O)Nc3ccccc3[C@@H]2Nc2ccccc21 (stereo partly specified) | 53.4 | > 100 | > 100 | 95.5 | > 100 |  | 57.4 | > 100 | > 100 | 31.3 | 63.5 | 62 | 45.3 | 76.1 | > 100 | > 100 |  |  |  | 
COC(=O)C1C=CN(N(C)C)C2=C1C(=O)c1c(O)cccc1C2=O (stereo unspecified) | 7.47 | 5.58 | 6.45 | 3.87 | 5.57 | 3.86 | 8.42 | 5.16 | 12.4 | 1.77 |  | 2.93 | 2.37 | 3.94 | 5.14 |  |  |  |  | 
Cc1ccc(C(=O)N/N=C(\N=Nc2ccccc2[N+](=O)[O-])c2ccc(N(C)C)cc2)cc1 |  | > 100 |  | > 100 | > 100 | > 100 |  | > 100 | > 100 | > 100 | > 100 |  | > 100 | > 100 | > 100 | > 100 |  |  |  | 
CC(=C\c1ccccc1)/C=C(\C#N)C(N)=O | > 10 |  | > 10 | > 10 |  |  | > 10 | > 10 | > 10 | > 10 | > 10 | > 10 |  | > 10 | > 10 | > 10 |  |  |  | 
CC(C)C1=C(Cc2ccccc2)C(=O)O/C1=C\c1cc(Cl)c(O)c(Cl)c1 | 53.1 | 37.1 |  | 35.9 | 30.1 |  | 42.4 | 39.7 | 33 | 34.5 | 44.4 | 36.6 | 36 | 39.5 | 44.6 | 37.4 |  |  |  | 
C#CCN(CC#C)C(=O)C(=O)c1c[nH]c2ccc(OC)cc12 | 29.5 | 36.1 | 83.5 | 31 |  |  | 31.3 | 29.5 | 65.1 | 31.1 | 29.2 | 32.7 | 42.7 | 38.7 | 41.2 |  |  |  |  | 
CCOC(=O)C1=C(N)Oc2ccc(Br)cc2C1C(C#N)C(=O)OCC (stereo unspecified) | > 100 | 68.1 | 53.1 | 32.4 | 44.8 |  | > 100 | 40.9 | 33.6 | 42.6 | 40.3 | 41 | 83.5 | 35.3 | 43.2 | 54.9 |  |  |  | 
CCOC(=O)c1ccc(NC(=O)O/N=C(/Cl)CCl)cc1 | > 100 | > 100 | > 100 | > 100 | > 100 |  | > 100 | > 100 | > 100 | > 100 | > 100 | > 100 |  |  | > 100 | > 100 |  |  |  | 
CC(C)(C)[Si](C)(C)OC1/C(=C/C#N)C(n2ccc(=O)[nH]c2=O)OC1CO (stereo unspecified) | > 100 | > 100 | > 100 | > 100 | > 100 |  | > 100 |  | > 100 | > 100 | > 100 | > 100 | > 100 |  | > 100 | > 100 |  |  |  | 
CCc1nc2ccc(N=NN(C)C)cc2[nH]1 |  | > 100 | > 100 | > 100 | > 100 | > 100 | > 100 | > 100 | > 100 | > 100 |  | > 100 | > 100 | > 100 | > 100 | > 100 |  |  |  | 
O=S(=O)(O)c1ccc(N=Nc2ccc(N=Nc3c(O)ccc4ccccc34)cc2)cc1 |  | > 100 | > 100 | > 100 | > 100 | > 100 | > 100 | > 100 | > 100 | > 100 |  | > 100 | > 100 | > 100 | > 100 | > 100 |  |  |  | 
CCSc1[nH]c(Nc2nc(-c3ccccc3)n(-c3ccccc3)n2)c(C(N)=O)c1C(N)=O |  |  | > 10 | > 10 | > 10 |  | > 10 | > 10 |  | > 10 |  | > 10 | > 10 |  | > 10 | > 10 |  |  |  | 
Cc1c(CNc2ccc(C(=O)NC(CC(=O)O)C(=O)O)cc2)ccc2nc(N)nc(N)c12 (stereo unspecified) | > 1000 | > 1000 |  |  | > 1000 | > 1000 | > 1000 | > 1000 | > 1000 | > 1000 | > 1000 | > 1000 | > 1000 | > 1000 | > 1000 | > 1000 | > 1000 | > 1000 | < 0.01 | > 1000
